Data as given in ChEMBL document CHEMBL4765432, “Design and synthesis of novel Flavone-based histone deacetylase inhibitors antagonizing activation of STAT3 in breast cancer” (Eur J Med Chem, 2020).
Active and inactive are the calls of the source. The calls are words filed in the database; no cut-off is given here.

Legend:
[1] = tested on: MDA-MB-231; test: Induction of cell cycle arrest in human MDA-MB-231 cells assessed as increase in p21 expression at 0.25 to 5 uM incubated for 24 hrs by Western blot analysis; format: functional, cell-based; conditions: dose 0.25-5 µM
[2] = tested on: 4T1; test: Potency index, ratio of IC50 of SAHA to IC50 of compound for cytotoxicity against mouse 4T1 cells assessed as reduction in cell viability incubated for 48 hrs by MTT assay; format: functional
[3] = tested on: MDA-MB-231; test: Induction of apoptosis in human MDA-MB-231 cells assessed as late apoptotic cells at 1 uM incubated for 72 hrs by annexinV-FITC and PI staining based flow cytometry analysis (reference value: 3.79 %); format: functional
[4] = tested on: MDA-MB-231; test: Induction of apoptosis in human MDA-MB-231 cells assessed as early apoptotic cells at 1 uM incubated for 72 hrs by annexinV-FITC and PI staining based flow cytometry analysis (reference value: 5.57 %); format: functional
[5] = Half life in Sprague-Dawley rat at 20 mg/kg, iv measured upto 12 hrs by LC-MS/MS analysis; format: ADME, organism-based; conditions: in vivo
[6] = tested on: MDA-MB-231; test: Induction of cell cycle arrest in human MDA-MB-231 cells assessed as G2/M phase accumulation at 1 uM incubated for 24 hrs by PI staining based flow cytometry analysis (reference value: 27.08 %); format: functional
[7] = tested on: 4T1; test: Induction of cell cycle arrest in mouse 4T1 cells assessed as G2/M phase accumulation at 1 uM incubated for 24 hrs by PI staining based flow cytometry analysis (reference value: 38.51 %); format: functional
[8] = target: Histone deacetylase 5 (Homo sapiens, UniProt Q9UQL6); test: Inhibition of recombinant human N-terminal GST-tagged HDAC-5 (617 to end residues) expressed in baculovirus infected in Sf9 cells at 10 uM using Boc-Lys (q-Ac)-AMC as substrate incubated for 10 mins followed by substrate addition and measured after 30 mins by fluorescence based assay relative to control; conditions: time 40.0 min
Chain of Histone deacetylase 5 (Q9UQL6 whole entry): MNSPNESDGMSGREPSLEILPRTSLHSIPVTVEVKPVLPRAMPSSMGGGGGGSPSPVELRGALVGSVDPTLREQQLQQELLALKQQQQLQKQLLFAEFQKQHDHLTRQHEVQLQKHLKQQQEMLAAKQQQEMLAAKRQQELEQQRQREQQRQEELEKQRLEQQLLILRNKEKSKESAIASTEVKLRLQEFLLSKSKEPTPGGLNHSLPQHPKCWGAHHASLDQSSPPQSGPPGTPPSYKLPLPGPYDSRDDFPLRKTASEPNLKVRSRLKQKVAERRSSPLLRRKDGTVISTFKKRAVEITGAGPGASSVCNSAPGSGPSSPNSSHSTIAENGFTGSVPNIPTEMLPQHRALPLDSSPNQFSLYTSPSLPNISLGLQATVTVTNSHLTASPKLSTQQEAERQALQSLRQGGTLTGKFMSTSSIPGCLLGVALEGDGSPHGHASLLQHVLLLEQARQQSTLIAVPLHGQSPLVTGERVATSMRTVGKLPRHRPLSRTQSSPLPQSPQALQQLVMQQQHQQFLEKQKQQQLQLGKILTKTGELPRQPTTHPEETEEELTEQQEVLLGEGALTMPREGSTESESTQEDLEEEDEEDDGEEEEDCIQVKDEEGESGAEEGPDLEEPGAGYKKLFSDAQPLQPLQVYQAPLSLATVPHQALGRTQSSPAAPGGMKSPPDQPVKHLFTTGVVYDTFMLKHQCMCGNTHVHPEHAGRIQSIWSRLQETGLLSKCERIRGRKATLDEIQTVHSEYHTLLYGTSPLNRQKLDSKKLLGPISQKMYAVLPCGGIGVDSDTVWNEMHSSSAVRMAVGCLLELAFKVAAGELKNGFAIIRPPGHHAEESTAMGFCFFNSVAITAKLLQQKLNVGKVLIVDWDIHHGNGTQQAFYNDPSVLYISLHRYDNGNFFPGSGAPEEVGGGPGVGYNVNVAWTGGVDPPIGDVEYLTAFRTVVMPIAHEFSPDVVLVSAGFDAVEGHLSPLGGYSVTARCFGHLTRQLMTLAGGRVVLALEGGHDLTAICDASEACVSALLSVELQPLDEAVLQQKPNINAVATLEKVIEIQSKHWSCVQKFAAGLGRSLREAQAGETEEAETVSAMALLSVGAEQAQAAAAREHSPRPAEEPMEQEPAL

[9] = target: Protein deacetylase HDAC6 (Homo sapiens, UniProt Q9UBN7); test: Inhibition of recombinant human N-terminal GST-tagged full length HDAC-6 expressed in baculovirus infected in Sf9 cells using Boc-Lys (q-Ac)-AMC as substrate incubated for 10 mins followed by substrate addition and measured after 30 mins by fluorescence based assay
Chain of Protein deacetylase HDAC6 (Q9UBN7 whole entry): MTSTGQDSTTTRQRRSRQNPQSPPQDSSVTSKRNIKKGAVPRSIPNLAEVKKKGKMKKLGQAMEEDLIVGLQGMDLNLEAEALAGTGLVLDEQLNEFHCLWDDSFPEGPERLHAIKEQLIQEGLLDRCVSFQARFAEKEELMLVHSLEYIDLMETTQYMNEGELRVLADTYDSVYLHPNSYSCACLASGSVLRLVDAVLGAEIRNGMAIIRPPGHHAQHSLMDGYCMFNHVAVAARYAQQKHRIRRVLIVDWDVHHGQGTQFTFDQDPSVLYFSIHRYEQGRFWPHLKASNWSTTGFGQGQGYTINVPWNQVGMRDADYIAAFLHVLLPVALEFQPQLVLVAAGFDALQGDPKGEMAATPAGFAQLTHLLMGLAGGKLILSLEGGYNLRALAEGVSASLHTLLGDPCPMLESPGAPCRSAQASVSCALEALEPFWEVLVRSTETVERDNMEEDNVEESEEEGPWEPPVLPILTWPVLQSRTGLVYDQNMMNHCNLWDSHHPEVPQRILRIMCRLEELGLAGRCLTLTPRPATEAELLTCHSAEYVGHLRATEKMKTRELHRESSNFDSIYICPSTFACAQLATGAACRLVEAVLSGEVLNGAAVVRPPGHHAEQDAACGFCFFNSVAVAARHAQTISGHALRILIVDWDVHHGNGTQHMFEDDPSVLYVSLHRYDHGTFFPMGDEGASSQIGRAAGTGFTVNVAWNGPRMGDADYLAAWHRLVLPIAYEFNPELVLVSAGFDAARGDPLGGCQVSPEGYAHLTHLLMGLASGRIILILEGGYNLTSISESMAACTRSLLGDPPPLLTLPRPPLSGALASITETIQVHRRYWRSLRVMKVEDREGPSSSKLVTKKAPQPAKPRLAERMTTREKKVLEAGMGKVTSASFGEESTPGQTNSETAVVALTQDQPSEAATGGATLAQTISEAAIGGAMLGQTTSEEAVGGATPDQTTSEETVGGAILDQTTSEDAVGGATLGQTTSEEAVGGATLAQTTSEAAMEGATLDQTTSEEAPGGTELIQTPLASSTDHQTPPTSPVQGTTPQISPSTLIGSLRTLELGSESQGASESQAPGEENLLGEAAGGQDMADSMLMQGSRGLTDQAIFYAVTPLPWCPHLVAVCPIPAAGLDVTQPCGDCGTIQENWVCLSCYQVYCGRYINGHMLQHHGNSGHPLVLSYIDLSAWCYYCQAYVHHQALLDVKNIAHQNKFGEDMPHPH

[10] = Genotoxicity in Salmonella typhimurium WP2 uvrA (pKM 101) by Ames test; format: toxicity; conditions: salmonella enterica subsp. enterica serovar typhimurium
[11] = Toxicity in C57BL/6 mouse assessed death of organism at 300 mg/kg, ip observed for 24 hrs; format: organism-based; conditions: in vivo
[12] = tested on: MDA-MB-231; test: Induction of cell cycle arrest in human MDA-MB-231 cells assessed as G2/M phase accumulation at 2 uM incubated for 24 hrs PI staining based by flow cytometry analysis (reference value: 27.08 %); format: functional
[13] = tested on: MDA-MB-231; test: Induction of apoptosis in human MDA-MB-231 cells assessed as necrotic cells at 5 uM incubated for 72 hrs by annexinV-FITC and PI staining based flow cytometry analysis (reference value: 0.330 %); format: functional
[14] = tested on: 4T1; test: Cytotoxicity against mouse 4T1 cells assessed as reduction in cell viability incubated for 48 hrs by MTT assay; format: functional, cell-based; conditions: 4T1, 48 h
[15] = tested on: BT-549; test: Cytotoxicity against human BT-549 cells assessed as reduction in cell viability incubated for 48 hrs by MTT assay; format: functional, cell-based; conditions: BT-549, 48 h
[16] = tested on: 4T1; test: Induction of apoptosis in mouse 4T1 cells assessed as necrotic cells at 5 uM incubated for 72 hrs by annexinV-FITC and PI staining based flow cytometry analysis (reference value: 5.00 %); format: functional
[17] = tested on: MDA-MB-231; test: Potency index, ratio of IC50 of SAHA to IC50 of compound for cytotoxicity against human MDA-MB-231 cells assessed as reduction in cell viability incubated for 48 hrs by MTT assay; format: functional
[18] = tested on: MCF7; test: Potency index, ratio of IC50 of SAHA to IC50 of compound for cytotoxicity against human MCF7 cells assessed as reduction in cell viability incubated for 48 hrs by MTT assay; format: functional
[19] = Genotoxicity in Salmonella typhimurium TA98 by Ames test; format: toxicity; conditions: salmonella enterica subsp. enterica serovar typhimurium
[20] = Genotoxicity in Salmonella typhimurium TA100 by Ames test; format: toxicity; conditions: salmonella enterica subsp. enterica serovar typhimurium
[21] = Genotoxicity in Salmonella typhimurium TA97a by Ames test; format: toxicity; conditions: salmonella enterica subsp. enterica serovar typhimurium
[22] = tested on: BT-549; test: Potency index, ratio of IC50 of SAHA to IC50 of compound for cytotoxicity against human BT-549 cells assessed as reduction in cell viability incubated for 48 hrs by MTT assay; format: functional
[23] = tested on: NCI-H1581; test: Cytotoxicity against human NCI-1581 cells assessed as reduction in cell viability incubated for 48 hrs by MTT assay; format: functional, cell-based; conditions: NCI-H1581, 48 h
[24] = Tmax in Sprague-Dawley rat at 20 mg/kg, iv measured upto 12 hrs by LC-MS/MS analysis; format: ADME, organism-based; conditions: in vivo
[25] = target: Histone deacetylase 7 (Homo sapiens) (UniProt Q8WUI4); test: Inhibition of recombinant human N-terminal GST-tagged HDAC-7 (501 to end residues) expressed in baculovirus infected in Sf9 cells at 10 uM using Boc-Lys (q-Ac)-AMC as substrate incubated for 10 mins followed by substrate addition and measured after 30 mins by fluorescence based assay relative to control; conditions: time 40.0 min
Chain of Histone deacetylase 7 (Homo sapiens) (Q8WUI4 whole entry): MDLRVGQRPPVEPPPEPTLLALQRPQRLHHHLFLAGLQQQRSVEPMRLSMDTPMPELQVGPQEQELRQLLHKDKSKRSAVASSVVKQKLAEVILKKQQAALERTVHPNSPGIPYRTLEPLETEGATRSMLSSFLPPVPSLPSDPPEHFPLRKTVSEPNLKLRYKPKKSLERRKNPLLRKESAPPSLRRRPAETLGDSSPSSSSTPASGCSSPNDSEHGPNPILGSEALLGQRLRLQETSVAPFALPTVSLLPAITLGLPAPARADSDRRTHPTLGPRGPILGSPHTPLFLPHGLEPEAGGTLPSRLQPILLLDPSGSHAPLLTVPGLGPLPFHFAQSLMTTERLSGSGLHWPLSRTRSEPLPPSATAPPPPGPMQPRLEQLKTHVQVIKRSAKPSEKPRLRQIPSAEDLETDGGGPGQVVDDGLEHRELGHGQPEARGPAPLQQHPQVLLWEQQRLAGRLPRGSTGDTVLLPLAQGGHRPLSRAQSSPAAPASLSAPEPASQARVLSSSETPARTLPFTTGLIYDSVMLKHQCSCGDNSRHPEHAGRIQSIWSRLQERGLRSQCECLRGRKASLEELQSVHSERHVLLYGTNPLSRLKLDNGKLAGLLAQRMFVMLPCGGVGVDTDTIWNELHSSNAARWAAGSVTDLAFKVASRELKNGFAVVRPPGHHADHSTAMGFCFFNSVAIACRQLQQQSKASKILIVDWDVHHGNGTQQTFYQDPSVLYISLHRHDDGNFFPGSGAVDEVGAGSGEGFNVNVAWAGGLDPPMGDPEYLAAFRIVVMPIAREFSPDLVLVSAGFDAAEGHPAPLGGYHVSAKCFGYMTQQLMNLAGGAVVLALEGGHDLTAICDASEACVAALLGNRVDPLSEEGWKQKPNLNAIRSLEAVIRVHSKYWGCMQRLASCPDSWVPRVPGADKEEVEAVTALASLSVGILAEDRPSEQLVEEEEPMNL

[26] = tested on: 4T1; test: Induction of cell cycle arrest in mouse 4T1 cells assessed as G0/G1 phase accumulation at 1 uM incubated for 24 hrs by PI staining based flow cytometry analysis (reference value: 42.06 %); format: functional
[27] = tested on: 4T1; test: Induction of apoptosis in mouse 4T1 cells assessed as early apoptotic cells at 2.5 uM incubated for 72 hrs by annexinV-FITC and PI staining based flow cytometry analysis (reference value: 1.65 %); format: functional
[28] = tested on: MDA-MB-231; test: Induction of apoptosis in human MDA-MB-231 cells assessed as viable cells at 5 uM incubated for 72 hrs by annexinV-FITC and PI staining based flow cytometry analysis (reference value: 90.3 %); format: functional; conditions: read-out: Activity
[29] = MRT in Sprague-Dawley rat at 20 mg/kg, po measured upto 12 hrs by LC-MS/MS analysis; format: ADME, organism-based; conditions: in vivo
[30] = tested on: MDA-MB-231; test: Induction of apoptosis in human MDA-MB-231 cells assessed as decrease in Bcl-2 expression incubated for 48 hrs by Western blot analysis; format: functional, cell-based; conditions: dose 0.5-10 µM
[31] = tested on: L02; test: Cytotoxicity against human L02 cells assessed as reduction in cell viability incubated for 48 hrs by MTT assay; format: ADME, cell-based; conditions: L02, 48 h
[32] = tested on: MDA-MB-231; test: Induction of cell cycle arrest in human MDA-MB-231 cells assessed as S phase accumulation at 2 uM incubated for 24 hrs by PI staining based flow cytometry analysis (reference value: 43.82 %); format: functional
[33] = Genotoxicity in Salmonella typhimurium TA1537 by Ames test; format: toxicity; conditions: salmonella enterica subsp. enterica serovar typhimurium
[34] = target: Signal transducer and activator of transcription 3 (Homo sapiens) (UniProt P40763); test: Inhibition of STAT3 in human MDA-MB-231 cells assessed as reduction in STAT-3 phosphorylation incubated for 8 hrs by Western blot analysis; format: cell-based; conditions: dose 2.5-20 µM
Chain of Signal transducer and activator of transcription 3 (Homo sapiens) (P40763 whole entry): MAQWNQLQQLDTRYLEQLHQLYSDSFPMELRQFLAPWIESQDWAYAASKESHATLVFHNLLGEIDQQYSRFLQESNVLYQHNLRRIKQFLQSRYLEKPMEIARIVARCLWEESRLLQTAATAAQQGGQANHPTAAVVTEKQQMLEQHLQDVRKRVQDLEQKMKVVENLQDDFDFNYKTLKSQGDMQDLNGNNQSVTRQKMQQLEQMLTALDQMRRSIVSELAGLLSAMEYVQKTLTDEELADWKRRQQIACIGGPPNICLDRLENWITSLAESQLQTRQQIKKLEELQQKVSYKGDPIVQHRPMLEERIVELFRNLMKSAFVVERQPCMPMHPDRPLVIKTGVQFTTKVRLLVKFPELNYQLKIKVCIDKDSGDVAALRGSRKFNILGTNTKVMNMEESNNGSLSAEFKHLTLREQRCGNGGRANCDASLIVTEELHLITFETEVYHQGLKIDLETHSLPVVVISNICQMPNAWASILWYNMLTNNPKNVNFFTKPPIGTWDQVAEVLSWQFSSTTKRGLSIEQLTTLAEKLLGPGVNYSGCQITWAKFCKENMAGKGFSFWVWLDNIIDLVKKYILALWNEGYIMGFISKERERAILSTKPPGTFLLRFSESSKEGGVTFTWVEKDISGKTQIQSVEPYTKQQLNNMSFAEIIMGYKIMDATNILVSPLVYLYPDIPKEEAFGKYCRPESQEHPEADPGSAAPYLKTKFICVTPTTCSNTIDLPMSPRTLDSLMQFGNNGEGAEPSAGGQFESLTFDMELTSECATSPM

[35] = tested on: MDA-MB-231; test: Induction of apoptosis in human MDA-MB-231 cells assessed as effect on p53 expression at 0.5 to 10 uM incubated for 48 hrs by Western blot analysis; format: functional, cell-based; conditions: dose 0.5-10 µM

In the case of CN(C)CCOc1ccc(-c2cc(=O)c3c(O)cc(OCCCCCC(=O)NO)cc3o2)cc1.Cl, the Activity [1] is reported as “Active”, the “Ratio IC50” value [2] is reported as 2 and the Activity [3] is reported as 12%. For the same compound, the Activity [4] was 23.1%, the half-life [5] was 1.42 h and the Activity [6] was 42.82%. It also gave an Activity [7] of 19.39%, an inhibition [8] of 38% and an IC50 [9] of 0.0255 µM. For the same compound, the Activity [10] was “Non-Toxic”, the Activity [11] was “Non-Toxic” and the Activity [12] was 27.89%. For the same compound, the Activity [13] was 0.06%, the IC50 [14] was 1.99 µM and the IC50 [15] was 4.13 µM. For the same compound, the Activity [16] was 0.852%, the “Ratio IC50” value [17] was 2 and the “Ratio IC50” value [18] was 2. The Activity [19] was “Toxic”, the Activity [20] was “Toxic” and the Activity [21] was “Non-Toxic”. The “Ratio IC50” value [22] was 2, the IC50 [23] was 2.32 µM and the Tmax [24] was 4.98 min. For the same compound, the inhibition [25] was 43%, the Activity [26] was 49.62% and the Activity [27] was 31.4%. The viability at 5 µM [28] was 17.2%, the MRT [29] was 1.1 h and the Activity [30] was “Dose-dependent effect”. The IC50 [31] was over 10 µM, the Activity [32] was 10.21% and the Activity [33] was “Non-Toxic”. The inhibition [34] was “Dose-dependent effect” and the Activity [35] was “inactive”.
